Measured values: patent publication US9012500B2, “PKC-ε activator” (Nishizaki Bioinformation Research Institute, priority 2010, dated 2015)

How the values were obtained:
PKC-ε = biological target: T1, PKC-ε (Rattus norvegicus, UniProt P09216); assay: Intracellular PKC assay after knockdown of PKC-ε (siRNA) in PC-12 cells; type: cell-based; conditions: PKC-ε siRNA vs NC siRNA, FIG. 3
T1 construct: PC-12 cells were transfected with PKC-ε siRNA or NC siRNA; endogenous in cells; host or cells: rat PC-12 cells
T1 sequence (P09216 1-737): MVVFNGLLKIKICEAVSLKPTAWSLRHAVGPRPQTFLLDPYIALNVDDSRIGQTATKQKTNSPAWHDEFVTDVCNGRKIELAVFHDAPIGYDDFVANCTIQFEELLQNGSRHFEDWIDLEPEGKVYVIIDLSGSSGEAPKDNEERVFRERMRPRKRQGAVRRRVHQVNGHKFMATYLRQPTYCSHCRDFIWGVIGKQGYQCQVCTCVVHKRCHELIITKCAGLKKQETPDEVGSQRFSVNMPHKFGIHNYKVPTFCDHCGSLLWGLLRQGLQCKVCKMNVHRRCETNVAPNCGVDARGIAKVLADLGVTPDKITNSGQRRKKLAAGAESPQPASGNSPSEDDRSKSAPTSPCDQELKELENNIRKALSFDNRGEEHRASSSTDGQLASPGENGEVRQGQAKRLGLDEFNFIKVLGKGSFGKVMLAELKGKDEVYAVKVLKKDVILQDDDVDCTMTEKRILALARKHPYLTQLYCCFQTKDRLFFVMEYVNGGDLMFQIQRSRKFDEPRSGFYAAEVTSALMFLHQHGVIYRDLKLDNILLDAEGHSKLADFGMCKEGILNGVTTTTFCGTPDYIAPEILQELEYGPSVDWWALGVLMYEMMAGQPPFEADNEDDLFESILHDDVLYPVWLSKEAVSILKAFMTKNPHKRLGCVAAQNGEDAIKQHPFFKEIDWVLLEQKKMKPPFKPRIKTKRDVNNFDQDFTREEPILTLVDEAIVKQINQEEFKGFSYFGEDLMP
Description: According to the method described in a publication [Kanno T et al., J Lipid Res 47 (6):1146-1156, 2006], the PKC activity of rat PC-12 cells was assayed. The cells were treated with each DCP-LA optical isomer at 37° C. for 10 min. The treatment was performed in an extracellular solution [137 mM NaCl, 5.4 mM KCl, 10 mM MgCl2, 5 mM ethyleneglycol-bis(2-aminoethylether)-N,N,N′,N′-tetraacetic acid (EGTA), 0.3 mM Na2HPO4, 0.4 mM K2HPO4 and 20 mM 4-(2-hydroxyethyl)-1-piperazin-ethanesulfonic acid, pH 7.2]. Then, the cells were rinsed with 100 μl of phosphate-buffered saline (PBS) in the absence of Ca^2+, and incubated in an extracellular solution (50 μl) containing 50 μg/ml digitonin, 25 mM glycerol 2-phosphate, 200 μM ATP and 100 μM synthetic PKC substrate peptide (Pyr-Lys-Arg-Pro-Ser-Gln-Arg-Ser-Lys-Tyr-Leu (SEQ ID NO: 1); MW, 1,374; Pyr: […]) at 37° C. for 15 min. […] A substrate peptide peak and a new resultant product peak were detected at the absorbance of 214 nm (SPD-10Avp UV-VIS detector, Shimadzu Co., Kyoto, Japan). […] The molecular weight was calculated from the two standard spectra of bradykinin (MW 1060.2) and substance P (MW 1672.9).
The areas of the non-phosphorylated and phosphorylated substrate peptides were measured (total area corresponds to the concentration of PKC substrate peptide used). […]

[1] = system: senescence-accelerated mouse (SAMP8); assay: Water maze test in senescence-accelerated mouse (SAMP8); type: in vivo; conditions: SAMP8, 0.25 mg/kg orally once a day, 8 days
Description: Using senescence-accelerated mouse (accelerated-senescence-prone mice 8: SAMP8) and normal senescence mouse (accelerated-senescence-resistant mice 1: SAMR1) as a control thereof, a water maze test was performed. Male SAMP8 and SAMR1 (22- to 25-week-old) were available from Takeda Pharmaceutical Company Limited (Osaka, Japan). The mice were individually raised in a cage at 23±1° C., 12 hr light/dark cycle (lighted at 7:00 am), and allowed to freely ingest feed (solid feed) and water.
Racemate DCP-LA and 4 optical isomers DCP-LA (α,α-, α,β-, β,α-, β,β-DCP-LA), each dissolved in 0.1 ml polyethylene glycol (PEG), or 0.1 ml PEG were orally administered once a day from the day when the water maze test was started. For each group, the water maze test was performed twice a day for 8 days, and the time required to reach a platform (acquisition latency) was measured.
For the water maze test, a circular plastic water tank (diameter 90 cm, depth 36 cm) was used. The inside of the water tank was completely painted in black, and dark water with India ink was filled up to 20 cm from the bottom (22° C.). A platform (diameter 11 cm) painted in black was placed in water such that it was 1 cm below the water surface. The water tank was placed in a test room, and several marks seen by the mice from the water tank were put thereon. During the test, the position of the marks was not changed. A platform was placed a predetermined position from the equal distance from the center and the end of the water tank, namely, center of one quadrant. At one of the randomly selected 5 points, the mouse was released facing the wall of the water tank, and the time necessary for evacuating on the platform (acquisition latency) was measured. When smoothly evacuated, the mouse was left on the platform for 10 seconds. From the day of water maze test and during the test, polyethylene glycol (PEG) alone or racemate DCP-LA (1 mg/kg), α,α-DCP-LA (0.25 mg/kg), α,β-DCP-LA (0.25 mg/kg), β,α-DCP-LA (0.25 mg/kg), or β,β-DCP-LA (0.25 mg/kg), each dissolved in PEG, was orally administered every day. The water maze test was performed twice a day, and the second test was started at 2 min from the first test. The test was continuously performed for 8 days, and the average value (±SEM) of acquisition latency of continuous 2 days until the mouse reached the platform was calculated (each n=5).

SMILES: CCCCC[C@@H]1C[C@@H]1C[C@@H]1C[C@H]1CCCCCCCC(=O)O [α,β-DCP-LA, 8-[(1R,2S)-2-{(1R,2R)-2-pentylcyclopropylmethyl}-cyclopropyl]octanoic acid]
- PKC activation induced by the compound after knocking down PKC-ε (PKC-ε): inhibited by knocking down PKC-ε
- acquisition latency as compared to the PEG administration group [1]: shortened acquisition latency
- acquisition latency as compared to the racemate DCP-LA (1 mg/kg) administration group [1]: significantly shortened acquisition latency
- acquisition latency as compared to the α,α-DCP-LA (0.25 mg/kg) administration group [1]: significantly shortened acquisition latency
